# According to patent US20020065219A1, “Water soluble thiazolyl peptide derivatives” (priority 2000, published 2002):
# Like-named read-outs stand apart in the source and are kept apart here.
# Tests used:
# [1] = system: Enterococcus faecalis A20688; assay: MIC, broth micro dilution assay (NCCLS); type: cell-based; conditions: for MIC: Enterococcus faecalis, read-out: MIC (μg/mL) against Enterococcus faecalis A20688
# [2] = system: Streptococcus pneumoniae A28272; assay: MIC, broth micro dilution assay (NCCLS); type: cell-based; conditions: for MIC: Streptococcus pneumoniae, read-out: MIC (μg/mL) against Streptococcus pneumoniae A28272
# [3] = system: Staphylococcus aureus A15090; assay: MIC, broth micro dilution assay (NCCLS); type: cell-based; conditions: for MIC: Staphylococcus aureus, read-out: MIC (μg/mL) against Staphylococcus aureus A15090
# [4] = system: Staphylococcus aureus A15090; assay: animal or person; type: in vivo, female ICR mice; conditions: A15090, in Mus musculus, iv, 1 h, read-out: PD50 (dose which protects 50% of mice from mortality)
# [5] = Mueller-Hinton medium, 35° C., 18 hours
# [6] = 50% Mueller-Hinton medium and 50% Todd Hewitt medium, 35° C., 18 hours
Structure (SMILES),"MIC ([1]; A20688, 18 h) [µg/mL]","MIC ([2]; A28272, 18 h) [µg/mL]","MIC ([3]; A15090, 18 h) [µg/mL]","MIC (μg/mL) against Enterococcus faecalis A20688 [1, 5] [µg/mL]","MIC (μg/mL) against Streptococcus pneumoniae A28272 [2, 6] [µg/mL]","MIC (μg/mL) against Staphylococcus aureus A15090 [3, 5] [µg/mL]",further results
CO/C(C)=C1/NC(=O)C(C(C)O)NC(=O)c2csc(n2)-c2cc(O)c(-c3nc(C(=O)NC(CN4CCN(C)CC4)C(N)=O)cs3)nc2-c2csc(n2)C2COC(=O)c3c4c5c(cccc5n3O)COC(=O)C(O[C@H]3C[C@](C)(O)[C@H](N(C)C)[C@H](C)O3)C(OC4)C(NC(=O)c3csc1n3)c1nc(cs1)C(=O)N2 (some centres unmarked) [Example 1],0.5,0.125,0.25,,,,ED50 [4]: 0.19 to 7.3 mg/kg
CO/C(C)=C1/NC(=O)C(C(C)O)NC(=O)c2csc(n2)-c2cc(O)c(-c3nc(C(=O)NC(CN(C)CCO)C(N)=O)cs3)nc2-c2csc(n2)C2COC(=O)c3c4c5c(cccc5n3O)COC(=O)C(O[C@H]3C[C@](C)(O)[C@H](N(C)C)[C@H](C)O3)C(OC4)C(NC(=O)c3csc1n3)c1nc(cs1)C(=O)N2 (some centres unmarked) [Example 2],0.06,0.015,0.015,,,,ED50 [4]: 0.19 to 7.3 mg/kg
COC(C)=C1NC(=O)C(C(C)O)NC(=O)c2csc(n2)-c2cc(O)c(-c3nc(C(=O)NC(CN4CCCC4C(O)c4nccn4C)C(N)=O)cs3)nc2-c2csc(n2)C2COC(=O)c3c4c5c(cccc5n3O)COC(=O)C(OC3CC(C)(O)C(N(C)C)C(C)O3)C(OC4)C(NC(=O)c3csc1n3)c1nc(cs1)C(=O)N2 (centres unmarked) [Example 91],,,,0.06,0.015,0.03,
CO/C(C)=C1/NC(=O)C(C(C)O)NC(=O)c2csc(n2)-c2cc(O)c(-c3nc(C(=O)NC(CN(C)CCO)C(N)=O)cs3)nc2-c2csc(n2)C2COC(=O)c3[nH]c4cccc5c4c3COC(C(O[C@H]3C[C@](C)(O)[C@H](N(C)C)[C@H](C)O3)C(=O)OC5)C(NC(=O)c3csc1n3)c1nc(cs1)C(=O)N2 (some centres unmarked) [Example 92],,,,0.125,0.0005,0.125,
COC(C)=C1NC(=O)C(C(C)O)NC(=O)c2csc(n2)-c2cc(O)c(-c3nc(C(=O)NC(CN(C)CCc4ccccn4)C(N)=O)cs3)nc2-c2csc(n2)C2COC(=O)c3c4c5c(cccc5n3O)COC(=O)C(O)C(OC4)C(NC(=O)c3csc1n3)c1nc(cs1)C(=O)N2 (centres unmarked) [Example 93],,,,0.06,0.001,0.06,
COC(C)=C1NC(=O)C(C(C)O)NC(=O)c2csc(n2)-c2cc(O)c(-c3nc(C(=O)NC(CSCC(=O)O)C(N)=O)cs3)nc2-c2csc(n2)C2COC(=O)c3c4c5c(cccc5n3O)COC(=O)C(O)C(OC4)C(NC(=O)c3csc1n3)c1nc(cs1)C(=O)N2 (centres unmarked) [Example 95],,,,4.0,0.03,0.5,
COC(C)=C1NC(=O)C(C(C)O)NC(=O)c2csc(n2)-c2cc(O)c(-c3nc(C(=O)NC(CN(C)CCCn4ccnc4)C(N)=O)cs3)nc2-c2csc(n2)C2COC(=O)c3c4c5c(cccc5n3O)COC(=O)C(O)C(OC4)C(NC(=O)c3csc1n3)c1nc(cs1)C(=O)N2 (centres unmarked) [Example 97],,,,0.25,0.125,0.125,
COCC1CCCN1CC(NC(=O)c1csc(-c2nc3c(cc2O)-c2nc(cs2)C(=O)NC(C(C)O)C(=O)NC(=C(C)OC)c2nc(cs2)C(=O)NC2c4nc(cs4)C(=O)NC(COC(=O)c4c5c6c(cccc6n4O)COC(=O)C(O)C2OC5)c2nc-3cs2)n1)C(N)=O (centres unmarked) [Example 98],,,,0.5,0.003,0.03,
CN[C@@H]1[C@H](C)O[C@@H](OC2C(=O)OCc3cccc4c3c3c(n4O)C(=O)OCC4NC(=O)c5csc(n5)C(NC(=O)c5csc(n5)/C(=C(/C)OC)NC(=O)C(C(C)O)NC(=O)c5csc(n5)-c5cc(O)c(-c6nc(C(=O)NC(CN(C)CCO)C(N)=O)cs6)nc5-c5csc4n5)C2OC3)C[C@]1(C)O (some centres unmarked) [Example 99],,,,,,,MIC (μg/mL) against Enterococcus faecalis A20688 [1]: 0.125 µg/mL; MIC (μg/mL) against Streptococcus pneumoniae A28272 [2]: 0.015 µg/mL; MIC (μg/mL) against Staphylococcus aureus A15090 [3]: 0.03 µg/mL
C/C=C1\NC(=O)C(C(C)O)NC(=O)c2csc(n2)-c2cc(O)c(-c3nc(C(=O)NC(CN(C)CCCn4ccnc4)C(N)=O)cs3)nc2-c2csc(n2)C2CSC(=O)c3[nH]c4cccc(c4c3C)COC(=O)C(O)CC(NC(=O)c3csc1n3)c1nc(cs1)C(=O)N2 (centres unmarked) [Example 101],,,,,,,"MIC ([1]; A20688, Mueller-Hinton medium, 35° C., 18 hours): 0.125 µg/mL; MIC ([2]; A28272, 50% Mueller-Hinton medium and 50% Todd Hewitt medium, 35° C., 18 hours): 0.003 µg/mL; MIC ([3]; A15090, Mueller-Hinton medium, 35° C., 18 hours): 0.125 µg/mL"
C/C=C1\NC(=O)C(C(C)O)NC(=O)c2csc(n2)-c2cc(O)c(-c3nc(C(=O)NC(CSCCN(CC)CC)C(N)=O)cs3)nc2-c2csc(n2)C2CSC(=O)c3[nH]c4cccc(c4c3C)COC(=O)C(O)CC(NC(=O)c3csc1n3)c1nc(cs1)C(=O)N2 (centres unmarked) [Example 102],0.25,0.03,0.125,,,,
CCN(CC)CCS(=O)(=O)CC(NC(=O)c1csc(-c2nc3c(cc2O)-c2nc(cs2)C(=O)NC(C(C)O)C(=O)N/C(=C(\C)OC)c2nc(cs2)C(=O)NC2c4nc(cs4)C(=O)NC(COC(=O)c4c5c6c(cccc6n4O)COC(=O)C(O[C@H]4C[C@](C)(O)C(N(C)C)[C@H](C)O4)C2OC5)c2nc-3cs2)n1)C(N)=O (some centres unmarked) [Example 103],0.03,0.007,0.06,,,,
CO/C(C)=C1/NC(=O)C(C(C)O)NC(=O)c2csc(n2)-c2cc(O)c(-c3nc(C(=O)NC(CS(=O)(=O)C4CN5CCC4CC5)C(N)=O)cs3)nc2-c2csc(n2)C2COC(=O)c3c4c5c(cccc5n3O)COC(=O)C(O[C@H]3C[C@](C)(O)C(N(C)C)[C@H](C)O3)C(OC4)C(NC(=O)c3csc1n3)c1nc(cs1)C(=O)N2 (some centres unmarked) [Example 104],1,0.06,0.5,,,,
CO/C(C)=C1/NC(=O)C(C(C)O)NC(=O)c2csc(n2)-c2cc(O)c(-c3nc(C(=O)NC(CS(=O)(=O)C4C[N+]5([O-])CCC4CC5)C(N)=O)cs3)nc2-c2csc(n2)C2COC(=O)c3c4c5c(cccc5n3O)COC(=O)C(OC3CC(C)(O)C([N+](C)(C)[O-])C(C)O3)C(OC4)C(NC(=O)c3csc1n3)c1nc(cs1)C(=O)N2 (centres unmarked) [Example 105],2,0.25,1,,,,
COC(C)=C1NC(=O)C(C(C)O)NC(=O)c2csc(n2)-c2cc(O)c(-c3nc(C(=O)NC(CN(C)C(=O)CCC(=O)O)C(N)=O)cs3)nc2-c2csc(n2)C2COC(=O)c3c4c5c(cccc5n3O)COC(=O)C(OC3CC(C)(O)C(N(C)C)C(C)O3)C(OC4)C(NC(=O)c3csc1n3)c1nc(cs1)C(=O)N2 (centres unmarked) [Example 106],,,,32,8.0,4.0,
CNC(=O)On1c2c3c4c(cccc41)COC(=O)C(OC1CC(C)(O)C(N(C)C)C(C)O1)C(OC3)C1NC(=O)c3csc(n3)C(=C(C)OC)NC(=O)C(C(C)O)NC(=O)c3csc(n3)-c3cc(O)c(-c4nc(C(=O)NC(CN(C)C(=O)NC)C(N)=O)cs4)nc3-c3csc(n3)C(COC2=O)NC(=O)c2csc1n2 (centres unmarked) [Example 108],,,,0.5,0.03,0.125,
CNC(=O)N(C)CC(NC(=O)c1csc(-c2nc3c(cc2O)-c2nc(cs2)C(=O)NC(C(C)O)C(=O)N/C(=C(\C)OC)c2nc(cs2)C(=O)NC2c4nc(cs4)C(=O)NC(COC(=O)c4c5c6c(cccc6n4O)COC(=O)C(OC4CC(C)(O)C(N(C)C)C(C)O4)C2OC5)c2nc-3cs2)n1)C(N)=O (centres unmarked) [Example 109],,,,0.5,0.06,0.06,
CNC(=O)N(CCN(C)C)CC(NC(=O)c1csc(-c2nc3c(cc2O)-c2nc(cs2)C(=O)NC(C(C)O)C(=O)N/C(=C(\C)OC)c2nc(cs2)C(=O)NC2c4nc(cs4)C(=O)NC(COC(=O)c4c5c6c(cccc6n4O)COC(=O)C(OC4CC(C)(O)C(N(C)C)C(C)O4)C2OC5)c2nc-3cs2)n1)C(N)=O (centres unmarked) [Example 110],,,,,,,MIC (μg/mL) against Enterococcus faecalis A20688 [1]: 2.0 µg/mL; MIC (μg/mL) against Streptococcus pneumoniae A28272 [2]: 0.03 µg/mL; MIC (μg/mL) against Staphylococcus aureus A15090 [3]: 0.5 µg/mL
CNC(=O)On1c2c3c4c(cccc41)COC(=O)C(OC1CC(C)(O)C(N(C)C)C(C)O1)C(OC3)C1NC(=O)c3csc(n3)/C(=C(/C)OC)NC(=O)C(C(C)O)NC(=O)c3csc(n3)-c3cc(O)c(-c4nc(C(=O)NC(CN(CCN(C)C)C(=O)NC)C(N)=O)cs4)nc3-c3csc(n3)C(COC2=O)NC(=O)c2csc1n2 (centres unmarked) [Example 111],,,,,,,MIC (μg/mL) against Enterococcus faecalis A20688 [1]: 2.0 µg/mL; MIC (μg/mL) against Streptococcus pneumoniae A28272 [2]: 0.06 µg/mL; MIC (μg/mL) against Staphylococcus aureus A15090 [3]: 1.0 µg/mL
